SMILES strings stand for the structures.

What all share (assay type): cell-based
The target of assay [1] is T1, STAT3 (Homo sapiens, UniProt P40763).
T1 construct: plasmid pSTAT3-TA-luc), which contains a stably operating STAT3 promoter; endogenous in cells
In words: STAT3 reporter gene assay (luciferase), LNCaP stable cell line (pSTAT3-TA-luc), IL-6 stimulation. Summed up:
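LNCaP cells stably carrying pSTAT3-TA-luc, in RPMI1640 with 3% DCC-FBS, were treated with compound and then stimulated with 10 ng/mL IL-6 for 24–48 h at 37 °C. Luciferase activity was measured in lysates. A parallel plate measured viability by CellTiter-Glo, with stimulated 0.1% DMSO wells as the positive control.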
Background: A reporter such as luciferase makes a cellular process visible.

The test system of assay [2] is LNCaP. Put plainly: Cell growth inhibition assay, prostate cancer cell line LNCaP (medium with 10 ng/mL IL-6). The conditions noted are these: Homo sapiens, medium supplemented with 10 ng/mL of IL-6, 10,000 cells/well.
The subject of assay [3] is DU-145. Put plainly: Cell growth inhibition assay, prostate cancer cell line DU-145. The conditions noted are these: Homo sapiens, DU-145 prostate cancer cell line. Summed up:
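DU-145 and HCT116 cells were plated at 3,000 cells/well and SW626 at 5,000 cells/well, then treated with serially diluted compounds. After 72 to 96 hours at 37° C. under 5% CO2, viability was read by CellTiter-Glo luminescence against cell-free medium wells and 0.1% DMSO wells.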

Assay [4] has as its system HEL92.1.7. Put plainly: Cell growth inhibition assay, blood cancer cell line HEL92.1.7. The conditions noted are these: Homo sapiens, HEL 92.1.7, HEL92.1.7 blood cancer cell line. Summed up:
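Cells were seeded at 3,000/well (HCT116, DU-145) or 5,000/well (SW626 and the others) and exposed to serial compound dilutions for 72 to 96 h at 37 °C under 5% CO2. Viability was read as CellTiter-Glo luminescence against 0.1% DMSO and cell-free wells.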

T1 sequence (P40763 whole entry): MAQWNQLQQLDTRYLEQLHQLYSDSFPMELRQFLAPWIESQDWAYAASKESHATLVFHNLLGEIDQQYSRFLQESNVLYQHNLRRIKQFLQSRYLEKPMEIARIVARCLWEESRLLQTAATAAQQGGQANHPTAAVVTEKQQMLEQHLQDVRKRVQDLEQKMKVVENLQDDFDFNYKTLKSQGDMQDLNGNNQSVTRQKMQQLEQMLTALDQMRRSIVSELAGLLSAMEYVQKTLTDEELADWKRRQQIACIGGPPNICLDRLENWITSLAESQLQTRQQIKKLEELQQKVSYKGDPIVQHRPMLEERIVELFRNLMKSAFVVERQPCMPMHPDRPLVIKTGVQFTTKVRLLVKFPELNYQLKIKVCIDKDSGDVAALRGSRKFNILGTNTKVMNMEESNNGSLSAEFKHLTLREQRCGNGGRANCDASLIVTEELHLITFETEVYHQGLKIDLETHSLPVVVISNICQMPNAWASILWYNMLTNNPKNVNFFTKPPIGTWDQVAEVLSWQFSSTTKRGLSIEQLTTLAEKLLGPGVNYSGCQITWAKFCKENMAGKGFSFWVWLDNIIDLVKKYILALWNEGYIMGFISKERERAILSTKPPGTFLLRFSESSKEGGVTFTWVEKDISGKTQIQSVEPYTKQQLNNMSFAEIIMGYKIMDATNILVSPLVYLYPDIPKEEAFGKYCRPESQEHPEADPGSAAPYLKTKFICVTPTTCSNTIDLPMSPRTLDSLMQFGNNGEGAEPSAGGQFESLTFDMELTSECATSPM

As to `CC(C)Oc1cc(OC(F)(F)F)cc(C(C)(C)c2cc(Cl)cc(NC(=O)c3cc4cc(NS(=O)(=O)CCN(C)C)ccc4s3)c2)c1` [Example 208, N-(3-chloro-5-(2-(3-isopropoxy-5-(trifluoromethoxy)phenyl)propan-2-yl)phenyl)-5-((2-(dimethylamino)ethyl)sulfonamido)benzo[b]thiophene-2-carboxamide], the IC50 in assay [1] was determined as 0.17 µM; in assay [2] it was 0.22 µM; in assay [3] it was 0.08 µM; in assay [4], 0.33 µM.

`CC(C)Oc1cc(OC(F)(F)F)cc(C(C)(C)c2cc(Cl)cc(NC(=O)c3cc4cc(NS(=O)(=O)CCN5CCOCC5)ccc4s3)c2)c1` [Example 209, N-(3-chloro-5-(2-(3-isopropoxy-5-(trifluoromethoxy)phenyl)propan-2-yl)phenyl)-5-((2-morpholinoethyl)sulfonamido)benzo[b]thiophene-2-carboxamide]: the IC50 is 0.043 µM in assay [1], 0.053 µM in assay [2], 0.027 µM in assay [3] and 0.099 µM in assay [4].

Consider `CC(C)Oc1cc(OC(F)(F)F)cc(C(C)(C)c2cc(Cl)cc(NC(=O)c3cc4cc(NS(=O)(=O)CCN(C)O)ccc4s3)c2)c1` [Example 210, N-(3-chloro-5-(2-(3-isopropoxy-5-(trifluoromethoxy)phenyl)propan-2-yl)phenyl)-5-((2-(hydroxy(methyl)amino)ethyl)sulfonamido)benzo[b]thiophene-2-carboxamide], for which the IC50 in assay [1] worked out at 0.14 µM; in assay [2], 0.28 µM; in assay [3] it was 0.073 µM; in assay [4] it was 0.57 µM.

Consider `CC(C)Oc1cc(OC(F)(F)F)cc(C(C)(C)c2cc(Cl)cc(NC(=O)c3cc4cc(N5CCCCS5(=O)=O)ccc4s3)c2)c1` [Example 211, N-(3-chloro-5-(2-(3-isopropoxy-5-(trifluoromethoxy)phenyl)propan-2-yl)phenyl)-5-(1,1-dioxido-1,2-thiazinan-2-yl)benzo[b]thiophene-2-carboxamide], for which the IC50 in assay [1] was determined as 0.007 µM; in assay [2], 0.05 µM; in assay [3], 0.014 µM; in assay [4], 0.066 µM.

For `CC(C)Oc1cc(OC(F)(F)F)cc(C(C)(C)c2cc(Cl)cc(NC(=O)c3cc4cc(N5CCCS5(=O)=O)ccc4s3)c2)c1` [Example 212, N-(3-chloro-5-(2-(3-isopropoxy-5-(trifluoromethoxy)phenyl)propan-2-yl)phenyl)-5-(1,1-dioxidoisothiazolidin-2-yl)benzo[b]thiophene-2-carboxamide], the 50% inhibitory concentration (IC50) in assay [1] stood at 0.01 µM; in assay [2], 0.075 µM; in assay [3], 0.022 µM; in assay [4] it was 0.081 µM.

As to `CC(C)Oc1cc(OC(F)(F)F)cc(C(C)(C)c2cc(I)cc(NC(=O)c3sc4ccc(NS(C)(=O)=O)cc4c3I)c2)c1` [Example 214, 3-iodo-N-(3-iodo-5-(2-(3-isopropoxy-5-(trifluoromethoxy)phenyl)propan-2-yl)phenyl)-5-(methylsulfonamido)benzo[b]thiophene-2-carboxamide], the IC50 in assay [1] was 0.17 µM; in assay [2], 0.99 µM; in assay [3], 0.3 µM; in assay [4], above 1.1 µM.

With `CC(C)Oc1cc(OC(F)(F)F)cc(C(C)(C)c2cc(Cl)cc(NC(=O)c3cc4cc(N(C)S(C)(=O)=O)c(F)cc4s3)c2)c1` [Example 215, N-(3-chloro-5-(2-(3-isopropoxy-5-(trifluoromethoxy)phenyl)propan-2-yl)phenyl)-6-fluoro-5-(N-methylmethylsulfonamido)benzo[b]thiophene-2-carboxamide], the half-inhibitory concentration (IC50) was 0.002 µM in assay [1], 0.006 µM in assay [2], 0.002 µM in assay [3] and 0.007 µM in assay [4].

Regarding `CC(C)Oc1cc(OC(F)(F)F)cc(C(C)(C)c2cc(Cl)cc(N(C)C(=O)c3cc4cc(N(C)S(C)(=O)=O)c(F)cc4s3)c2)c1` [Example 216, N-(3-chloro-5-(2-(3-isopropoxy-5-(trifluoromethoxy)phenyl)propan-2-yl)phenyl)-6-fluoro-N-methyl-5-(N-methylmethylsulfonamido)benzo[b]thiophene-2-carboxamide], the IC50 in assay [1] is 0.38 µM; in assay [2], 1.1 µM; in assay [3], 0.3 µM; in assay [4], 0.95 µM.

In the case of `CC(C)Oc1cc(OC(F)(F)F)cc(C(C)(C)c2cc(Cl)cc(NC(=O)c3cc4cc(N(CCN5CCOCC5)S(C)(=O)=O)c(F)cc4s3)c2)c1` [Example 217, N-(3-chloro-5-(2-(3-isopropoxy-5-(trifluoromethoxy)phenyl)propan-2-yl)phenyl)-6-fluoro-5-(N-(2-morpholinoethyl)methylsulfonamido)benzo[b]thiophene-2-carboxamide], the concentration for half-maximal inhibition (IC50) in assay [1] was 2.06 µM; in assay [2], above 1.1 µM; in assay [3] it was 0.58 µM; in assay [4] it was above 1.1 µM.

In the case of `CC(C)Oc1cc(OC(F)(F)F)cc(C(C)(C)c2cc(Cl)cc(N(CCN3CCOCC3)C(=O)c3cc4cc(N(CCN5CCOCC5)S(C)(=O)=O)c(F)cc4s3)c2)c1` [Example 218, N-(3-chloro-5-(2-(3-isopropoxy-5-(trifluoromethoxy)phenyl)propan-2-yl)phenyl)-6-fluoro-N-(2-morpholinoethyl)-5-(N-(2-morpholinoethyl)methylsulfonamido)benzo[b]thiophene-2-carboxamide], the IC50 is above 10 µM in assay [1], 7.7 µM in assay [2], above 1.1 µM in assay [3] and above 1.1 µM in assay [4].

As to `CC(C)Oc1cc(OC(F)(F)F)cc(C(C)(C)c2cc(Cl)cc(NC(=O)c3cc4cc(N(CCN(C)C)S(C)(=O)=O)c(F)cc4s3)c2)c1` [Example 219, N-(3-chloro-5-(2-(3-isopropoxy-5-(trifluoromethoxy)phenyl)propan-2-yl)phenyl)-5-(N-(2-(dimethylamino)ethyl)methylsulfonamido)-6-fluorobenzo[b]thiophene-2-carboxamide], the IC50 in assay [1] is 1.19 µM; in assay [2], 0.19 µM; in assay [3], 0.18 µM; in assay [4], 0.9 µM.

For the compound `CS(=O)(=O)Nc1cc2cc(C(=O)Nc3cc(Cl)cc(-c4ccc(F)cc4F)c3)sc2cc1F` [Example 322, N-(5-chloro-2′,4′-difluoro-[1,1′-biphenyl]-3-yl)-6-fluoro-5-(methylsulfonamido)benzo[b]thiophene-2-carboxamide], the IC50 in assay [1] is 0.028 µM; in assay [2], 0.021 µM; in assay [3], 0.011 µM; in assay [4], 0.049 µM.

On to `CS(=O)(=O)Nc1ccc2sc(C(=O)Nc3cc(Cl)cc(-c4ccc(F)cc4F)c3)cc2c1` [Example 323, N-(5-chloro-2′,4′-difluoro-[1,1′-biphenyl]-3-yl)-5-(methylsulfonamido)benzo[b]thiophene-2-carboxamide], for which the IC50 in assay [1] stood at 0.11 µM; in assay [2], 0.063 µM; in assay [3], 0.035 µM; in assay [4], 0.097 µM.

As for `COc1cc(OC(F)(F)F)cc(-c2cc(Cl)cc(NC(=O)c3cc4cc(NS(C)(=O)=O)ccc4s3)c2)c1` [Example 324, N-(5-chloro-3′-methoxy-5′-(trifluoromethoxy)-[1,1′-biphenyl]-3-yl)-5-(methylsulfonamido)benzo[b]thiophene-2-carboxamide], the half-inhibitory concentration (IC50) in assay [1] turned out to be 0.53 µM; in assay [2], 0.48 µM; in assay [3], 0.4 µM; in assay [4] it was 0.83 µM.

For `COc1cc(OC(F)(F)F)cc(-c2cc(Cl)cc(NC(=O)c3cc4cc(NS(C)(=O)=O)c(F)cc4s3)c2)c1` [Example 325, N-(5-chloro-3′-methoxy-5′-(trifluoromethoxy)-[1,1′-biphenyl]-3-yl)-6-fluoro-5-(methylsulfonamido)benzo[b]thiophene-2-carboxamide], the IC50 in assay [1] worked out at 0.24 µM; in assay [2] it was 0.16 µM; in assay [3] it was 0.15 µM; in assay [4], 0.39 µM.

In the case of `COc1cc(OC(F)(F)F)cc(-c2cc(Cl)cc(NC(=O)c3cc4cc(N(C)S(C)(=O)=O)c(F)cc4s3)c2)c1` [Example 326, N-(5-chloro-3′-methoxy-5′-(trifluoromethoxy)-[1,1′-biphenyl]-3-yl)-6-fluoro-5-(N-methylmethylsulfonamido)benzo[b]thiophene-2-carboxamide], the IC50 in assay [1] amounted to 0.1 µM; in assay [2] it was 0.14 µM; in assay [3] it was 0.064 µM; in assay [4], 0.26 µM.

For `O=C(Nc1cc(Cl)cc(-c2ccc(F)cc2F)c1)c1cc2cc(NS(=O)(=O)C3CCOC3)ccc2s1` (stereo not drawn) [Example 327, N-(5-chloro-2′,4′-difluoro-[1,1′-biphenyl]-3-yl)-5-((tetrahydrofuran)-3-sulfonamido)benzo[b]thiophene-2-carboxamide], the half-maximal inhibitory concentration (IC50) in assay [1] is 0.041 µM; in assay [2], 0.088 µM; in assay [3] it was 0.034 µM; in assay [4], 0.082 µM.

Take `COc1cc(OC(F)(F)F)cc(-c2cc(Cl)cc(NC(=O)c3cc4cc(NS(=O)(=O)C5CCOC5)ccc4s3)c2)c1` (stereo not drawn) [Example 328, N-(5-chloro-3′-methoxy-5′-(trifluoromethoxy)-[1,1′-biphenyl]-3-yl)-5-((tetrahydrofuran)-3-sulfonamido)benzo[b]thiophene-2-carboxamide]: the concentration for half-maximal inhibition (IC50) was determined as 0.34 µM in assay [1], 0.34 µM in assay [2], 0.39 µM in assay [3] and 0.5 µM in assay [4].

In general, IC50 refers to the concentration at which inhibition is half-maximal. Read a low IC50 as greater potency in that assay.

Source of the values: patent US10562912B2 (C&C Research Laboratories, priority 2013, dated 2020).
